Laboratory results as given in patent US20110263588A1, “TRICYCLIC COMPOUNDS AS GLUTAMATE RECEPTOR MODULATORS” (GLAXO GROUP LIMITED, priority 2008, published 2011).
Like-named read-outs stand apart in the source and are kept apart here.

Molecular target: T1, human mGlu5 recombinant receptor (Homo sapiens, UniProt P41594)
T1 construct: expressed in transfected cells; host or cells: inducible CHO cell line stably expressing Aequorin (Euroscreen FAST); doxycycline-responsive promoter
Test: mGluR5 calcium mobilization in inducible mGluR5 CHO cells (aequorin luminescence, antagonist mode)
Assay type: cell-based
Details: antagonist activity against EC80 glutamate, inducible CHO cell line expressing human mGlu5 and Aequorin, read-out: IC50 (uM) Ca^++ flux
Excerpt: mGluR5 Calcium Mobilization in Inducible mGluR5 CHO Cells
To functionally measure mGluR5 calcium mobilization in response to agonists or antagonists, an inducible CHO cell line expressing the human mGlu5 recombinant receptor was used. This cell line also stably expressed Aequorin (Euroscreen FAST), a photoprotein that spontaneously couples with coelenterazine h when added exogenously in the cell media. The Aequorin-coelenterzine h complex undergoes a conformational change upon binding of calcium ions which results in the emission of blue light (wavelength 469 nm) that was measured using a Hamamatsu Functional Drug Screening System 6000.
mGluR5 expression was induced by a doxycycline responsive promoter by growing cells to mid-log phase for 18 hours in media without antibiotics and supplemented with doxycycline (600 ng/mL). Cells were detached from the plate by gentle flushing using PBS-EDTA (5 mM EDTA) and centrifuged for collection and resuspended in “assay buffer” (HBSS, 2.1 mM CaCl2, 2 ug/mL glutamate-pyruvate transaminase, 4 mM MEM sodium pyruvate, and 0.1% protease free BSA). Cells were incubated with coelenterazine h (Molecular Probes) at room temperature for 4 hours before testing.
To measure mGluR5 antagonist activity, cell suspensions containing test compound were mixed with EC80 glutamate and emission of light was recorded. Reference and test compounds were tested at several concentrations in duplicate to obtain dose response curves using the Prism GraphPad software (GraphPad Software Inc.). IC50 values were calculated from the dose response curves using the equation:
Y=Bottom+(Top−Bottom)/(1+10̂((LogEC50−X)*HillSlope)).

T1 sequence (P41594 21-1212): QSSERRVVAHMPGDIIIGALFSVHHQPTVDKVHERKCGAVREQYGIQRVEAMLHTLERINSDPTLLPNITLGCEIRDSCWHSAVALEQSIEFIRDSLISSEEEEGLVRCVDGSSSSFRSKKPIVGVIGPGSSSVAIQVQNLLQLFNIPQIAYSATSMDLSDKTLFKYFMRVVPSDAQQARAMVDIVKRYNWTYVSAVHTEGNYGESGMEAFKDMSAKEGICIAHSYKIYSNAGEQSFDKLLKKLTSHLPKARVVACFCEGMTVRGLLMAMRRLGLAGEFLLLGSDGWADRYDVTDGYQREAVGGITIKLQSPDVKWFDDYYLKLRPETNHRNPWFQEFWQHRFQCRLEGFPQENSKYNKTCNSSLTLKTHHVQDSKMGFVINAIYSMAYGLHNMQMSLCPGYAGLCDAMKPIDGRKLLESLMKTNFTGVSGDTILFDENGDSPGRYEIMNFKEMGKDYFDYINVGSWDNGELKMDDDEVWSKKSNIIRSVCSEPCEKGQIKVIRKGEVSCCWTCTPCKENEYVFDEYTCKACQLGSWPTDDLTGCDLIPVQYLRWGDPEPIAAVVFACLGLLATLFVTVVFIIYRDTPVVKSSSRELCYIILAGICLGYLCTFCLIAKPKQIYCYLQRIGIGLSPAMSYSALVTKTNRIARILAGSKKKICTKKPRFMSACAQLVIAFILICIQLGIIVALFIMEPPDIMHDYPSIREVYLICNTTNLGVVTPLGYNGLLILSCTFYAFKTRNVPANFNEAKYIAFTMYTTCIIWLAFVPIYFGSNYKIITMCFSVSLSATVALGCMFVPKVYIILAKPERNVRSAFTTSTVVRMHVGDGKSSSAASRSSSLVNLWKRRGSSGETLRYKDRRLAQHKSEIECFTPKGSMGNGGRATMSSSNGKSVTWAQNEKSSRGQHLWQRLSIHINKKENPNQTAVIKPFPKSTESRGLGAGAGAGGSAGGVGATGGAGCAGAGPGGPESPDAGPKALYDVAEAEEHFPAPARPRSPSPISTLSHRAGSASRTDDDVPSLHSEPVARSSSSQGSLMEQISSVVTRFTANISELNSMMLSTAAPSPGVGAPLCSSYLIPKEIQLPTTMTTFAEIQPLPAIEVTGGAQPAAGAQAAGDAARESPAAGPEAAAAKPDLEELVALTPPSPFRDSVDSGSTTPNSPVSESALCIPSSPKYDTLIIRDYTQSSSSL

Structure (SMILES) | IC50 (Table 2) [µM] | IC50 (Table 3) [µM]
Cc1cccc(NC(=O)c2nn(C)c3c2CCc2cccnc2-3)n1 [Example 13, 1-Methyl-N-(6-methylpyridin-2-yl)-4,5-dihydro-1H-pyrazolo[4,3-h]quinoline-3-carboxamide] | < 1 | –
COc1cccc(NC(=O)c2n[nH]c3c2COc2ccccc2-3)c1 [N-(3-methoxyphenyl)-1,4-dihydrochromeno[4,3-c]pyrazole-3-carboxamide] | – | > 10
Cn1nc(C(=O)Nc2ccc3c(c2)OCCO3)c2c1-c1ccccc1OC2 [Example 9, N-(2,3-Dihydrobenzo[b][1,4]dioxin-6-yl)-1-methyl-1,4-dihydrochromeno[4,3-c]pyrazole-3-carboxamide] | > 10 | –
Cc1ccc2c(c1)-c1c(c(C(=O)Nc3cccc(Cl)c3)nn1C)CS2 [N-(3-chlorophenyl)-1,8-dimethyl-1,4-dihydrothiochromeno[4,3-c]pyrazole-3-carboxamide] | – | < 1
O=C(Nc1ccc(Cl)cc1)c1n[nH]c2c1CCc1ccccc1-2 [N-(4-chlorophenyl)-4,5-dihydro-1H-benzo[g]indazole-3-carboxamide] | – | > 10
COc1ccc(NC(=O)c2n[nH]c3c2COc2ccccc2-3)cc1 [N-(4-methoxyphenyl)-1,4-dihydrochromeno[4,3-c]pyrazole-3-carboxamide] | – | > 10
Cc1cccc(NC(=O)c2n[nH]c3c2COc2ccccc2-3)n1 [Example 7, N-(6-Methylpyridin-2-yl)-1,4-dihydrochromeno[4,3-c]pyrazole-3-carboxamide] | > 10 | –
CCN(Cc1nn(C)c2c1COc1ccccc1-2)C(=O)c1ccc(Br)o1 [Example 11, 5-Bromo-N-ethyl-N-((1-methyl-1,4-dihydrochromeno[4,3-c]pyrazol-3-yl)methyl)furan-2-carboxamide] | > 10 | –
Cc1cccc(NC(=O)c2c3c(nn2C)-c2ncccc2CCC3)n1 [Example 23, 4-Methyl-N-(6-methylpyridin-2-yl)-3,4,14-triazatricyclo[8.4.0.0̂{2,6}]tetradeca-1(14),2,5,10,12-pentaene-5-carboxamide] | > 10 | –
Cn1nc2c(c1C1CCCN(C(=O)c3ccc(F)cc3)C1)CCc1ccccc1-2 (stereo not drawn) [Example 24, (4-Fluorophenyl)(3-(2-methyl-4,5-dihydro-2H-benzo[g]indazol-3-yl)piperidin-1-yl)methanone] | > 10 | –
CC(=O)N1Cc2c(C(=O)Nc3cccc(Cl)c3)nn(C)c2-c2ccccc21 [Example 19] | < 1 | –
Cn1nc(C(=O)Nc2cccc(Cl)c2)c2c1-c1ccsc1CC2 [N-(3-chlorophenyl)-1-methyl-4,5-dihydro-1H-thieno[2,3-g]indazole-3-carboxamide] | – | > 10
Cc1cccc(NC(=O)c2nn(C)c3c2CCc2ccc(C)nc2-3)n1 [Example 18] | < 1 | –
Cn1nc(C(=O)Nc2cccc(Cl)c2)c2cnc3ccccc3c21 [Example 20, N-(3-Chlorophenyl)-1-methyl-1H-pyrazolo[4,3-c]quinoline-3-carboxamide] | < 1 | –
O=C(Nc1cccnc1)c1n[nH]c2c1COc1ccccc1-2 [N-(pyridin-3-yl)-1,4-dihydrochromeno[4,3-c]pyrazole-3-carboxamide] | – | > 10
O=C(Nc1cccc(Cl)c1)c1noc2c1CSc1ccccc1-2 [N-(3-chlorophenyl)-4H-thiochromeno[3,4-d]isoxazole-3-carboxamide] | – | < 1
Cc1cccc(NC(=O)c2nn(C)c3c2COc2cc(F)ccc2-3)n1 [Example 6, 7-Fluoro-1-methyl-N-(6-methylpyridin-2-yl)-1,4-dihydrochromeno[4,3-c]pyrazole-3-carboxamide] | > 10 | –
Cc1cccc(NC(=O)c2nn(C(C)C)c3c2CCc2cccnc2-3)n1 [Example 15] | > 10 | –
Cc1cccc(NC(=O)c2nn(C)c3c2CCc2ccncc2-3)n1 [Example 17, 1-Methyl-N-(6-methylpyridin-2-yl)-4,5-dihydro-1H-pyrazolo[4,3-h]isoquinoline-3-carboxamide] | < 1 | –
Cn1nc(C2CCCN(C(=O)c3ccc(F)cc3)C2)c2c1-c1ccccc1CC2 (stereo not drawn) [Example 25, (4-Fluorophenyl)(3-(1-methyl-4,5-dihydro-1H-benzo[g]indazol-3-yl)piperidin-1-yl)methanone] | > 10 | –
Cn1nc2c(c1C(=O)Nc1cccc(Cl)c1)COc1ccc(F)cc1-2 [Example 2, N-(3-Chlorophenyl)-8-fluoro-2-methyl-2,4-dihydrochromeno[4,3-c]pyrazole-3-carboxamide] | < 1 | –
Cc1cccc(NC(=O)c2nn(C)c3c2CCCc2cccnc2-3)n1 [Example 22, 3-Methyl-N-(6-methylpyridin-2-yl)-3,4,14-triazatricyclo[8.4.0.0̂{2,6}]tetradeca-1(14),2(6),4,10,12-pentaene-5-carboxamide] | < 1 | –
Cn1nc(C(=O)Nc2cc(C#N)ccn2)c2c1-c1ccccc1OC2 [Example 8, N-(4-Cyanopyridin-2-yl)-1-methyl-1,4-dihydrochromeno[4,3-c]pyrazole-3-carboxamide] | > 10 | –

Now from value to molecule:

IC50 (Table 2) [µM] | IC50 (Table 3) [µM] | Structure (SMILES)
< 1 | – | Cn1nc(C(=O)Nc2cccc(Cl)c2)c2c1-c1ccccc1NC2 [Example 21, N-(3-Chlorophenyl)-1-methyl-4,5-dihydro-1H-pyrazolo[4,3-c]quinoline-3-carboxamide]
– | > 10 | CN(C(=O)c1noc2c1COc1ccccc1-2)c1cccc(Cl)c1 [N-(3-chlorophenyl)-N-methyl-4H-chromeno[3,4-d]isoxazole-3-carboxamide]
– | > 10 | Cn1nc(C(=O)Nc2ccc(Cl)cc2)c2c1-c1ccccc1OC2 [N-(4-chlorophenyl)-1-methyl-1,4-dihydrochromeno[4,3-c]pyrazole-3-carboxamide]
< 1 | – | Cn1nc(C(=O)Nc2cccc(Cl)c2)c2c1-c1cc(F)ccc1OC2 [Example 1, N-(3-Chlorophenyl)-8-fluoro-1-methyl-1,4-dihydrochromeno[4,3-c]pyrazole-3-carboxamide]
> 10 | – | Cn1nc(C(=O)Nc2cccc(Cl)c2)c2c1-c1cc(Cl)ccc1OC2 [Example 5, N-(3-Chlorophenyl)-8-chloro-1-methyl-1,4-dihydrochromeno[4,3-c]pyrazole-3-carboxamide]
– | > 10 | Cn1nc(C(=O)Nc2ccc(F)cc2)c2c1-c1ccccc1OC2 [N-(4-fluorophenyl)-1-methyl-1,4-dihydrochromeno[4,3-c]pyrazole-3-carboxamide]
– | 1 to 10 | COc1ccc(Cl)cc1NC(=O)c1nn(C)c2c1COc1ccccc1-2 [N-(5-chloro-2-methoxyphenyl)-1-methyl-1,4-dihydrochromeno[4,3-c]pyrazole-3-carboxamide]
– | 1 to 10 | Cn1nc(C(=O)Nc2ccccc2Cl)c2c1-c1ccccc1OC2 [N-(2-chlorophenyl)-1-methyl-1,4-dihydrochromeno[4,3-c]pyrazole-3-carboxamide]
– | > 10 | Cn1nc(C(=O)Nc2ccc(F)c(Cl)c2)c2c1-c1ccccc1OC2 [N-(3-chloro-4-fluorophenyl)-1-methyl-1,4-dihydrochromeno[4,3-c]pyrazole-3-carboxamide]
– | > 10 | Cn1nc(C(=O)NCc2cccc(Cl)c2)c2c1-c1ccccc1OC2 [N-(3-chlorobenzyl)-1-methyl-1,4-dihydrochromeno[4,3-c]pyrazole-3-carboxamide]
< 1 | – | Cn1nc(C(=O)Nc2cccc(Cl)c2)c2c1-c1ccccc1CC2 [Example 14, N-(3-Chlorophenyl)-1-methyl-4,5-dihydro-1H-benzo[g]indazole-3-carboxamide]
> 10 | – | Cn1nc(C(=O)N2CCOc3ccccc32)c2c1-c1ccccc1OC2 [Example 10, (2H-Benzo[b][1,4]oxazin-4(3H)-yl)(1-methyl-1,4-dihydrochromeno[4,3-c]pyrazol-3-yl)methanone]
– | < 1 | Cn1nc(C(=O)Nc2ccc(Cl)cn2)c2c1-c1ccccc1OC2 [N-(5-chloropyridin-2-yl)-1-methyl-1,4-dihydrochromeno[4,3-c]pyrazole-3-carboxamide]
1 to 10 | – | Cn1nc(CNc2cccc(Cl)c2)c2c1-c1ccccc1OC2 [Example 12]
– | > 10 | Cn1nc(C(=O)Nc2cccc(C(F)(F)F)c2)c2c1-c1ccccc1OC2 [1-methyl-N-(3-(trifluoromethyl)phenyl)-1,4-dihydrochromeno[4,3-c]pyrazole-3-carboxamide]
> 10 | – | Cn1nc(C(=O)Nc2cccc(Cl)c2)c2c1-c1ccccc1OC2(C)C [Example 4, N-(3-Chlorophenyl)-1,4,4-trimethyl-1,4-dihydrochromeno[4,3-c]pyrazole-3-carboxamide]
– | < 1 | Cn1nc(C(=O)Nc2cccc(Cl)c2)c2c1-c1ccccc1SC2 [N-(3-chlorophenyl)-1-methyl-1,4-dihydrothiochromeno[4,3-c]pyrazole-3-carboxamide]
1 to 10 | – | Cn1nc(C(=O)Nc2cc(Cl)ccn2)c2c1-c1ccccc1OC2 [Example 3, N-(4-Chloropyridin-2-yl)-1-methyl-1,4-dihydrochromeno[4,3-c]pyrazole-3-carboxamide]
– | > 10 | CN(C(=O)c1nn(C)c2c1COc1ccccc1-2)c1cccc(Cl)c1 [N-(3-chlorophenyl)-N,1-dimethyl-1,4-dihydrochromeno[4,3-c]pyrazole-3-carboxamide]
